Assay [1] concerns FGFR2 in SUM52 cells (phospho-ERK1/2). Kind of assay: Drug washout Western blot assay, SUM52 cells. To be noted: for exposure concentration for irreversible inhibition (fully covalently bind the target) in cells: SUM52 (FGFR2), 30 minute exposure; for inhibition of phosphorylation of ERK1/2, no washout / phospho-ERK1/2 after extensive drug washout: 30 min; for inhibition of phosphorylation of ERK1/2, no washout: then FGF-stimulation; for phospho-ERK1/2 after extensive drug washout: washout prior to FGF-stimulation. The class given is cell-based. The protocol:
Cells were seeded on the day prior to drug treatment (1 million cells/well; 6-well plate).
Drug stocks were prepared in media using 1 mM or 10 mM DMSO stock solutions. Media was aspirated from each well and replaced with 2 ml of drug-free media for control wells or 2 ml of diluted drug for treated wells. Cells were exposed to drug for 30 min. Recombinant FGF (50 ng/well) was added to each well 15 minutes prior to the end of the drug exposure and protein was extracted as below.
Cells were exposed to drug for 30 min as above. Media was aspirated and each well was washed with 5 ml drug-free media. The wash media was aspirated and replaced with 2 ml drug-free media and cells incubated for a further 30 minutes, after which the wash protocol was repeated. Cells were incubated for a further 90 minutes in drug-free media. Recombinant FGF (50 ng/well) was added to each well 15 minutes prior to the end of the drug-free incubation and protein was extracted as below.
Cell lysates were prepared in 250 μL of RIPA lysis buffer containing protease inhibitor (1:100). After incubation on ice (30 min) and centrifugation (13,000 rpm, 5 min, 4° C.) the supernatants containing the proteins were stored (−20° C.) until required. Bicinchoninic acid (BCA) assay was used to determine the protein concentration of individual cell lysate samples.
Background: Immunoblotting shows a protein as a band on a membrane.

Assay [2] addresses T1, FGFR1 (Homo sapiens, UniProt P11362).
T1 construct: purchased Invitrogen
The assay is described as follows: Isolated enzyme FRET-based Z-Lyte kinase inhibition assay. The format is biochemical. To be noted: means from 3 independent experiments; read-out: Isolate Enzyme Inhibition IC50, FGFR1. The protocol: (§1) FGFR1-4 and the Z-Lyte Kinase Assay Kit were purchased from Invitrogen. The concentration gradients from 5.1×10^−11 to 1.0×10^−6 mol/L were used for all the test compounds. The experiments were performed according to the instructions of the manufacturer.
(§2) FGFR1-4 isolated enzyme activity was determined using the FRET-based Z-Lyte kinase inhibition assay. The data are the means from 3 independent experiments.

The target in assay [3] is T2, FGFR3 (Homo sapiens, UniProt P22607).
T2 construct: purchased Invitrogen
The assay is described as above. The format is biochemical. The conditions noted are these: means from 3 independent experiments; read-out: Isolate Enzyme Inhibition IC50, FGFR3. The protocol:
as §1, §2

Assay [4] addresses T3, FGFR4 (Homo sapiens, UniProt P22455).
T3 construct: purchased Invitrogen
The assay is described as above. The class given is biochemical. To be noted: means from 3 independent experiments; read-out: Isolate Enzyme Inhibition IC50, FGFR4. The protocol: as §1, §2

Assay [5] concerns the target T4, FGFR2 (Homo sapiens, UniProt P21802).
T4 construct: purchased Invitrogen
The assay is described as above. The class given is biochemical. The conditions noted are these: means from 3 independent experiments; read-out: Isolate Enzyme Inhibition IC50, FGFR2. The protocol:
as §1, §2

Assay [6] has as its system FGFR1-amplified H520 non-small cell lung cancer cells. The assay is described as follows: Cell proliferation assay (SRB). The class given is cell-based. To be noted: Homo sapiens, NCI-H520, 168 h, read-out: Cellular Anti-proliferative IC50, H520.
For assay [7], the system named is FGFR3-amplified SW780 bladder cancer cells. Kind of assay: Cell proliferation assay (SRB). The conditions noted are these: Homo sapiens, SW780, 120 h, read-out: Cellular Anti-proliferative IC50, SW780.
Assay [8] concerns FGFR1 in H520 cells (phospho-ERK1/2). The assay is described as follows: Drug washout Western blot assay, H520 cells. The class given is cell-based. To be noted: for exposure concentration for irreversible inhibition (fully covalently bind the target) in cells: H520 (FGFR1), 30 minute exposure; for inhibition of phosphorylation of ERK1/2, no washout / phospho-ERK1/2 after extensive drug washout: 30 min; for inhibition of phosphorylation of ERK1/2, no washout: then FGF-stimulation; for phospho-ERK1/2 after extensive drug washout: washout prior to FGF-stimulation.

The subject of assay [9] is FGFR3 in SW780 cells (phospho-ERK1/2). The assay is described as follows: Drug washout Western blot assay, SW780 cells. The format is cell-based. To be noted: for exposure concentration for irreversible inhibition (fully covalently bind the target) in cells: SW780 (FGFR3), 30 minute exposure; for inhibition of phosphorylation of ERK1/2, no washout / phospho-ERK1/2 after extensive drug washout / reversible or irreversible inhibition of FGFR3 in cells: SW780; for inhibition of phosphorylation of ERK1/2, no washout / phospho-ERK1/2 after extensive drug washout: 30 min; for inhibition of phosphorylation of ERK1/2, no washout: then FGF-stimulation; for phospho-ERK1/2 after extensive drug washout: washout prior to FGF-stimulation; for reversible or irreversible inhibition of FGFR3 in cells: with and without washout.

Assay [10] has as its system FGFR2-amplified SUM52 breast cancer cells. The assay is described as follows: Cell proliferation assay (SRB). The class given is cell-based. The conditions noted are these: SUM52, 120 h, read-out: Cellular Anti-proliferative IC50, SUM52, 5 days drug exposure.
Assay [11] has as its system FGFR4-amplified Hep3B hepatocellular carcinoma cells. Kind of assay: Cell proliferation assay (SRB). The format is cell-based. The conditions noted are these: Homo sapiens, Hep3B; read-out: Cellular Anti-proliferative IC50, Hep3B.
For assay [12], the target named is T5, recombinant FGFR1 (C584S) kinase domain (Homo sapiens, UniProt P11362, C584S).
T5 construct: made in house; host or cells: pETDuet vector, IPTG induction in Terrific Broth (bacterial)
Kind of assay: FGFR1 (C584S) covalent binding protein mass spectrometry assay. The conditions noted are these: protein:inhibitor 1:10, 37° C. The protocol: The previously cloned C488A/C584S FGFR1 construct was modified by site-directed mutagenesis to provide a gene encoding the C584S FGFR1 kinase domain with the cysteine at amino acid C488 reinstated. Expression and purification of this protein followed the protocol described above but with the addition of 10% glycerol to all buffers and a change of buffer pH to a value of 8.5. Protein for mass spectrometry was concentrated to ˜40 mg/ml and was mixed 1:1 (v/v) with glycerol, and then frozen at −20° C. or flash cooled in liquid nitrogen and stored at −80° C. until needed.
Protein samples were buffer exchanged to remove glycerol (the final buffer comprised 20 mM Tris-HCl pH 8.5, 10% (v/v) glycerol, 20 mM NaCl, 5 mM EDTA, 2 mM TCEP) and were mixed with each inhibitor at 1:10 molar ratio (protein:inhibitor). Final protein concentration was 20 μM. […] Samples were mixed with 90 μL of 0.1% formic acid to quench the reaction followed by flash cooling in liquid nitrogen. Samples were stored at −80° C. until needed. All experiments were carried out in triplicate.
Samples were subjected to liquid chromatography mass spectrometry (LC-MS) to show mass changes attributable to irreversible inhibition. Mass spectrometry experiments were performed at the University of Auckland Mass Spectrometry Center using an electropspray QSTAR® XL ESI quadrupole Time-of-Flight (QToF) MS system (Applied Biosystems) operated in positive ionization mode. The instrument was calibrated using Renin Substrate Standard (SCIEX), over the m/z range 100-2000. Protein/inhibitor samples were thawed and 2 μL volumes injected into a liquid chromatography (LC) BIOshell™ A400 Protein C4 HPLC column (10 cm×2.1 mm, 3.4 μm) attached to the mass spectrometer. […] Following elution, samples were directly injected into the mass spectrometer for separation and mass analysis. Mass spectrometry data were processed and analysed using the PeakView™ 2.1 software and the Bio Tool Kit plug-in (SCIEX) and covered an m/z range of 330-1600. Deconvolution calculations allowed visualisation of intact mass protein peaks and allowed peak area measurement to assess the percentage of protein covalently modified by each inhibitor at each time point. Data was plotted using GraphPad Prism 7 (GraphPad).

Each structure is given as a SMILES string. pIC50: −log10 of the molar value. Values joined by “and” are separate entries in the source; they are usually repeats but may differ in a detail not shown here. Identical values can stand only once.

In general, pIC50 refers to the IC50 on a negative log10 scale, so that one unit is a factor of ten.

T3 sequence (P22455 22-802): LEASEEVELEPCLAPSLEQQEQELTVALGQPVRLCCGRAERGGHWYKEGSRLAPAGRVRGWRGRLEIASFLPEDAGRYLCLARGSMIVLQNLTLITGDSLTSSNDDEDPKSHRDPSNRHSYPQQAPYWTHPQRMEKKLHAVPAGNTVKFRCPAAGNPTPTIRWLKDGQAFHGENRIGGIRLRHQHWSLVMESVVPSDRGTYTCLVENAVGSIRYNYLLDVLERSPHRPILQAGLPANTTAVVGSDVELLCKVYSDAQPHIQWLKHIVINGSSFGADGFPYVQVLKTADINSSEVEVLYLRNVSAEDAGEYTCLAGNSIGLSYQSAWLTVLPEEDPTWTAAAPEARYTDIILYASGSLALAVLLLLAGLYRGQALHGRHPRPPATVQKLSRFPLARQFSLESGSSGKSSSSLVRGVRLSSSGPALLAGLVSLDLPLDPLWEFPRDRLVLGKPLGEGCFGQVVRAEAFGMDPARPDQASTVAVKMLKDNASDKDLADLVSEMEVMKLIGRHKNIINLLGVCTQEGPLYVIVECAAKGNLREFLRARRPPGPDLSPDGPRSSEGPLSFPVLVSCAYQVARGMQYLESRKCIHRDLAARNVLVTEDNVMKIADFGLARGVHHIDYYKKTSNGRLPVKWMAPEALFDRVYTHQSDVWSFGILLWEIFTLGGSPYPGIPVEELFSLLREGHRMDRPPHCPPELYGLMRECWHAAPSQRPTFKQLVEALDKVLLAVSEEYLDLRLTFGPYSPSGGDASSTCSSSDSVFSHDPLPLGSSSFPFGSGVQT
T5 sequence (P11362 with tags, fused parts or gaps C584S): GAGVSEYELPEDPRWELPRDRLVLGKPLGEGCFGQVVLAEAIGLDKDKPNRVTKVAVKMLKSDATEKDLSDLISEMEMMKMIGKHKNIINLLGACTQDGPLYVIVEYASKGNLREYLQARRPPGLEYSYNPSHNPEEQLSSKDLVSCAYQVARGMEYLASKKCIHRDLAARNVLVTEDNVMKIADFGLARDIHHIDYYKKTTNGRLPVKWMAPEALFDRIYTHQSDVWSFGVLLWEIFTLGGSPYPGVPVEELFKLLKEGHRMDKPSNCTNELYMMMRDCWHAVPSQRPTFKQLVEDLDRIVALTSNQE
T4 sequence (P21802 22-821): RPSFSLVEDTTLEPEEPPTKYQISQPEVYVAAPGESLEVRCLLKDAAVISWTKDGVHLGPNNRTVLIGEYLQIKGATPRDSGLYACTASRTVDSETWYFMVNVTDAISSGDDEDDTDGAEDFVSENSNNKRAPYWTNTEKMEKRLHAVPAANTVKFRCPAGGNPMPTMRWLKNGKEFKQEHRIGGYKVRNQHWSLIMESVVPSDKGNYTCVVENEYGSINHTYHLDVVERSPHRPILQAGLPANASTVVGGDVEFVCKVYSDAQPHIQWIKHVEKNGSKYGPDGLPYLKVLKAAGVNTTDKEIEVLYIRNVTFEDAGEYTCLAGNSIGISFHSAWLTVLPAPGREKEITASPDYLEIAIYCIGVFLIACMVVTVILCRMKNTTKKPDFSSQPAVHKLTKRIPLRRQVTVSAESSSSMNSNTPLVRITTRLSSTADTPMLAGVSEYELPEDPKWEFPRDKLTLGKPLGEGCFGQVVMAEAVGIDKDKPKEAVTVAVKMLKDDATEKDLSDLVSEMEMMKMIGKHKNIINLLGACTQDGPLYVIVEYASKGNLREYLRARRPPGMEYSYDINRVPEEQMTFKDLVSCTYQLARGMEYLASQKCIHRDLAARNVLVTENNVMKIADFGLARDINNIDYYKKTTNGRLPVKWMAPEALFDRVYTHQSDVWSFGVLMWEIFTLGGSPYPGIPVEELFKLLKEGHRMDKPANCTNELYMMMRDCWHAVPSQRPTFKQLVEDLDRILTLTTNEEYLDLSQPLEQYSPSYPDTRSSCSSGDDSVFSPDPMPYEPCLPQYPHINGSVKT
T2 sequence (P22607 23-806): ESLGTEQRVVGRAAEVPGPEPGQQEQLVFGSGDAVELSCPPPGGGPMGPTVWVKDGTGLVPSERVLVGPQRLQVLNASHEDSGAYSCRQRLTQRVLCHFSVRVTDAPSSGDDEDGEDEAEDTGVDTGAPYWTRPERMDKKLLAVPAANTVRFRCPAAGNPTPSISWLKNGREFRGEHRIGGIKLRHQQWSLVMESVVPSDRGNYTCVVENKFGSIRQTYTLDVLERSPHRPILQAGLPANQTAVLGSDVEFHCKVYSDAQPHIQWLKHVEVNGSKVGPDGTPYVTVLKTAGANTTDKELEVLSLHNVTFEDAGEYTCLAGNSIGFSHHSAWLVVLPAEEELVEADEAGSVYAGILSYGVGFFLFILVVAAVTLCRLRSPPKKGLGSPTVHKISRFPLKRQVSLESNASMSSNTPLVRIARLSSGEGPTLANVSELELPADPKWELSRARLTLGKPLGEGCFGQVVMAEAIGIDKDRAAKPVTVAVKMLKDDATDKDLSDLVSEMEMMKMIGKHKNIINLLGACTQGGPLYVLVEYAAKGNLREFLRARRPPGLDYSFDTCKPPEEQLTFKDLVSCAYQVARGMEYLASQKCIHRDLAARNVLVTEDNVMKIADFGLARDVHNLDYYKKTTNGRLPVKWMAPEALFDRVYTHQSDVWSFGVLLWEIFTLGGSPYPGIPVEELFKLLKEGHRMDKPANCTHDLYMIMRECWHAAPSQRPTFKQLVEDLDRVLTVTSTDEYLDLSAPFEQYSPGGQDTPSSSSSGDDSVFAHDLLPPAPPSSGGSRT
T1 sequence (P11362 22-822): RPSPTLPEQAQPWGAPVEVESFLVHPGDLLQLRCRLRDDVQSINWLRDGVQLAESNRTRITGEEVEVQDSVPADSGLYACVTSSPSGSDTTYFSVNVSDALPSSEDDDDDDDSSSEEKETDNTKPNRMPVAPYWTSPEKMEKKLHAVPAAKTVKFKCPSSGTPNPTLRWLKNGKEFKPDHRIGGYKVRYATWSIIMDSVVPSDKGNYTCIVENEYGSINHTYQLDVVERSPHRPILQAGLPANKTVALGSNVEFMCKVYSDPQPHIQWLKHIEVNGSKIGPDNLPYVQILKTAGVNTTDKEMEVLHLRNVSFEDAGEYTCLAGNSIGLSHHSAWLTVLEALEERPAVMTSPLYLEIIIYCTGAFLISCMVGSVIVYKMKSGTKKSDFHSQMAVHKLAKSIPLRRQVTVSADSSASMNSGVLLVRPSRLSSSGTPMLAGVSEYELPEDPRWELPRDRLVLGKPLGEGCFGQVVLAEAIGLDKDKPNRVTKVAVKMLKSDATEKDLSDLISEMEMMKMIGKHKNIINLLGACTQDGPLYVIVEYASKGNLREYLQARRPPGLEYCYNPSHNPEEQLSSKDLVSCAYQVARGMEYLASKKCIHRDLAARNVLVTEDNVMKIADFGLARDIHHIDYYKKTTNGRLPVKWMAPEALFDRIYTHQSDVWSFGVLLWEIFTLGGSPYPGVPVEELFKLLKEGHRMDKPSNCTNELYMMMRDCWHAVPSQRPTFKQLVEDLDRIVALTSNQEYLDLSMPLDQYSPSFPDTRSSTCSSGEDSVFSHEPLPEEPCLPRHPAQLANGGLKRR

Turning to `COc1cc(OC)c(Cl)c(N2Cc3cnc(Nc4ccccc4)nc3N([C@H]3CCN(C(=O)/C=C/CN(C)C)C3)C2=O)c1Cl` [Compound 106, (S,E)-3-(2,6-dichloro-3,5-dimethoxyphenyl)-1-(1-(4-(dimethylamino)but-2-enoyl)pyrrolidin-3-yl)-7-(phenylamino)-3,4-dihydropyrimido[4,5-d]pyrimidin-2(1H)-one], the “exposure concentration for irreversible inhibition (fully covalently bind the target) in cells” value in [1], in assay [8] and in assay [9] was 100 nM throughout. In addition, the “inhibition of phosphorylation of ERK1/2, no washout” value is listed as “complete inhibition” in [1] (SUM52, 100 nM); “complete inhibition” in assay [8] (H520, 100 nM); “complete inhibition” in [9] (100 nM). Also, the “phospho-ERK1/2 after extensive drug washout” value is “fully inhibited” in assay [1] (SUM52, 100 nM); “essential full inhibition” in [1] (SUM52, 1000 nM); “fully inhibited” in assay [8] (H520, 100 nM); “essential full inhibition” in [8] (H520, 1000 nM); “fully inhibited” in assay [9] (100 nM); “essential full inhibition” in assay [9] (1000 nM). Moreover, the “reversible or irreversible inhibition of FGFR2 in cells” value in [1] (SUM52, 30 min exposure, 100 nM, with and without washout) is listed as “potent irreversible inhibitor”. Further, the pIC50 in assay [2] was 8.96; in assay [3], 7.77; in assay [4] it was > 7.00 and 7.03; in assay [5] it was 7.59; in [6] it was 7.96; in assay [7], 8.30. In addition, the figures for the pIC50 in assay [10] and in assay [11] were 9.30 and 8.26, respectively. Also, the “reversible or irreversible inhibition of FGFR1 in cells” value in assay [8] (H520, 30 min exposure, 100 nM, with and without washout) is listed as “potent irreversible inhibitor”. Further, the “reversible or irreversible inhibition of FGFR3 in cells” value is on record as “potent irreversible inhibitor” in assay [9] (30 min exposure, 100 nM) and “irreversible” in assay [9] (120 minutes exposure, 100 nM). Also, the “% Conversion to FGFR1 (C584S) covalent adduct after 120 minutes incubation” value (“% Conversion to FGFR1” below) in assay [12] turned out to be 11%.

Turning to `COc1cc(OC)cc(N2Cc3cnc(Nc4ccc(N5CCOCC5)cc4)nc3N(C3CCN(C(=O)/C=C/CN(C)C)CC3)C2=O)c1` [Compound 131, (E)-3-(3,5-dimethoxyphenyl)-1-(1-(4-(dimethylamino)but-2-enoyl)piperidin-4-yl)-7-((4-morpholinophenyl)amino)-3,4-dihydropyrimido[4,5-d]pyrimidin-2(1H)-one], the “% Conversion to FGFR1” value in assay [12] is listed as 39%.

Consider `COc1cc(OC)c(Cl)c(N2Cc3cnc(NC4CCCCC4)nc3N([C@H]3CCN(C(=O)/C=C/CN(C)C)C3)C2=O)c1Cl` [Compound 105, (S,E)-7-(cyclohexylamino)-3-(2,6-dichloro-3,5-dimethoxyphenyl)-1-(1-(4-(dimethylamino)but-2-enoyl)pyrrolidin-3-yl)-3,4-dihydropyrimido[4,5-d]pyrimidin-2(1H)-one], for which the “exposure concentration for irreversible inhibition (fully covalently bind the target) in cells” value in [1], in [8] and in assay [9] was 1000 nM each time. Besides, the “inhibition of phosphorylation of ERK1/2, no washout” value in assay [1] (SUM52, 100 nM) was “complete inhibition”; in assay [8] (H520, 100 nM), “complete inhibition”; in [9] (100 nM), “complete inhibition”. For the same compound, the “phospho-ERK1/2 after extensive drug washout” value in assay [1] (SUM52, 100 nM) is listed as “remained inhibited”; in assay [1] (SUM52, 1000 nM), “essential full inhibition”; in [8] (H520, 100 nM), “partially inhibited”; in [8] (H520, 1000 nM), “essential full inhibition”; in assay [9] (100 nM) it was “fully restored”; in [9] (1000 nM) it was “essential full inhibition”. The pIC50 was 8.92 in assay [2]; 7.48 in assay [3]; 6.14 in [4]; 7.80 in assay [5]; 7.17 in assay [6]; 8.40 in assay [7]. Also, the pIC50 in assay [10] was 8.68; in assay [11], 7.10. Further, the “% Conversion to FGFR1” value in [12] worked out at 8%.

On to `COc1cc(OC)c(Cl)c(N2Cc3cnc(Nc4ccc(N5CCOCC5)cc4)nc3N(C3CCN(C(=O)/C=C/CN(C)C)CC3)C2=O)c1` [Compound 130, (E)-3-(2-chloro-3,5-dimethoxyphenyl)-1-(1-(4-(dimethylamino)but-2-enoyl)piperidin-4-yl)-7-((4-morpholinophenyl)amino)-3,4-dihydropyrimido[4,5-d]pyrimidin-2(1H)-one], for which the “% Conversion to FGFR1” value in assay [12] is 46%.

For the compound `COc1cc(OC)c(Cl)c(N2Cc3cnc(Nc4ccccc4)nc3N(C3CCN(C(=O)/C=C/CN(C)C)CC3)C2=O)c1` [Compound 128, (E)-3-(2-chloro-3,5-dimethoxyphenyl)-1-(1-(4-(dimethylamino)but-2-enoyl)piperidin-4-yl)-7-(phenylamino)-3,4-dihydropyrimido[4,5-d]pyrimidin-2(1H)-one], the “% Conversion to FGFR1” value in assay [12] is on record as 48%.

In the case of `COc1cc(OC)c(Cl)c(N2Cc3cnc(Nc4ccc(N5CCOCC5)cc4)nc3N(C3CCN(C(=O)/C=C/CN(C)C)CC3)C2=O)c1Cl` [Compound 129, (E)-3-(2,6-dichloro-3,5-dimethoxyphenyl)-1-(1-(4-(dimethylamino)but-2-enoyl)piperidin-4-yl)-7-((4-morpholinophenyl)amino)-3,4-dihydropyrimido[4,5-d]pyrimidin-2(1H)-one], the “% Conversion to FGFR1” value in assay [12] is recorded as 46%.
